Measurements reported in US4948782A, “A method of promoting the growth of domestic animals with erythromycin derivative containing composition” (Kitasato Kenkyusho, priority 1987, dated 1990).
Converted amounts (≈) assume the structure as drawn. Read-outs that look alike come from different tables or passages of the source.

Assays:
Type in all cases: cell-based
Escherichia coli NIHJ = test: MIC, Escherichia coli NIHJ (EC)
[1] = test system: Klebsiella pneumoniae ATCC 10031; test: MIC, Klebsiella pneumoniae ATCC 10031 (KP)
[2] = test system: Staphylococcus aureus FDA 209P; test: MIC, Staphylococcus aureus FDA 209P (SA(2)); conditions: Staphylococcus aureus, FDA209P, read-out: MIC SA (2)
Source text: (§1) The minimum inhibitory concentrations (MIC: mcg/ml) of the erythromycin derivatives of the present invention and the control erythromycin derivative (*) as the known growth promoting agent on typical test bacteria are shown in the following Tables 1 to 5.
SA(2): Staphylococcus aureus FDA 209P

[3] = test system: Staphylococcus aureus ATCC 6538P; test: MIC, Staphylococcus aureus ATCC 6538P (SA(1)); conditions: for MIC: Staphylococcus aureus, ATCC6538P, read-out: MIC SA (1)
Source text: as §1
SA(1): Staphylococcus aureus ATCC 6538P

Bacillus cereus IFO 3001 = test: MIC, Bacillus cereus IFO 3001 (BC); conditions: for MIC: Bacillus cereus
Bacillus subtilis = test: MIC, Bacillus subtilis (BS); conditions: for MIC: read-out: MIC BS
[4] = ATCC10031, Klebsiella pneumoniae ATCC 10031, read-out: MIC KP
[5] = Staphylococcus aureus ATCC 6538P
[6] = IFO3001, Bacillus cereus IFO 3001, read-out: MIC BC

| SMILES | MIC (Escherichia coli NIHJ) [µg/mL] | MIC [1, 4] [µg/mL] | MIC ([2]; Staphylococcus aureus FDA 209P) [µg/mL] | MIC [3, 5] [µg/mL] | MIC (Bacillus cereus IFO 3001; [6]) [µg/mL] | MIC (Bacillus subtilis) [µg/mL] | MIC EC (Escherichia coli NIHJ) [µg/mL] | MIC KP ([1]; Klebsiella pneumoniae ATCC 10031) [µg/mL] | MIC SA (1) [3, 5] [µg/mL] | MIC BC (Bacillus cereus IFO 3001; Bacillus cereus IFO 3001) [µg/mL] | MIC BS (Bacillus subtilis) [µg/mL] | MIC ([1]; Klebsiella pneumoniae, ATCC10031, read-out: MIC KP) [µg/mL] | MIC [2] [µg/mL] | MIC [3] [µg/mL] | MIC (Bacillus cereus IFO 3001; IFO3001, read-out: MIC BC) [µg/mL] |
| --- | --- | --- | --- | --- | --- | --- | --- | --- | --- | --- | --- | --- | --- | --- | --- |
| CC[C@H]1OC(=O)[C@H](C)[C@@H](O[C@H]2C[C@@](C)(OC)[C@@H](O)[C@H](C)O2)[C@H](C)[C@@H](O[C@@H]2O[C@H](C)C[C@H](N(C)C)[C@H]2O)[C@@]2(C)CC(C)C(O2)[C@H](C)[C@@H](O)[C@]1(C)O (stereo partly drawn) [*1, reference compound] | > 100 | > 100 | 12.5 (≈ 17.4 µM) | 12.5 (≈ 17.4 µM) | 12.5 (≈ 17.4 µM) | 6.25 (≈ 8.71 µM) |  |  |  |  |  |  |  |  |  |
| CC[C@H]1OC(=O)[C@H](C)[C@@H](O[C@H]2C[C@@](C)(OC)[C@@H](O)[C@H](C)O2)[C@H](C)[C@@H](O[C@@H]2O[C@H](C)C[C@H](N(C)C)[C@H]2O)[C@@]2(C)CC(C)C3(O[C@@]1(C)[C@H](O)[C@H]3C)O2 (stereo partly drawn) [*2 (EM202), Anhydroerythromycin A, reference compound] |  |  | 12.5 (≈ 17.5 µM) | 12.5 (≈ 17.5 µM) |  |  |  |  |  |  |  |  |  |  |  |
| CC[C@H]1OC(=O)[C@H](C)[C@@H](O[C@H]2C[C@@](C)(OC)[C@@H](O)[C@H](C)O2)[C@H](C)[C@@H](O[C@@H]2O[C@H](C)C[C@H](N(C)C)[C@H]2O)[C@](C)(O)C[C@@H](C)C(=O)[C@H](C)[C@@H](O)[C@]1(C)O [*3, Erythromycin A, reference compound] | 25 (≈ 34.1 µM) |  |  |  |  | 0.2 (≈ 0.273 µM) |  |  |  |  |  | 6.25 (≈ 8.52 µM) | 0.4 (≈ 0.545 µM) | 0.2 (≈ 0.273 µM) | 0.2 (≈ 0.273 µM) |
| CCC1OC(=O)C(C)C(OC2CC(C)(OC)C(O)C(C)O2)C(C)C(OC2OC(C)CC([N+](C)(C)CC)C2O)C2(C)CC(C)=C(O2)C(C)C(O)C1(C)O (stereo not drawn) [Compound 5] | > 100 | > 100 | > 100 | > 100 | > 100 | > 100 |  |  |  |  |  |  |  |  |  |
| CCC[N+](C)(C)C1CC(C)OC(OC2C(C)C(OC3CC(C)(OC)C(O)C(C)O3)C(C)C(=O)OC(CC)C(C)(O)C(O)C(C)C3=C(C)CC2(C)O3)C1O (stereo not drawn) [Compound 6] | > 100 | > 100 | > 100 | > 100 | > 100 | > 100 |  |  |  |  |  |  |  |  |  |
| CCC1OC(=O)C(C)C(OC2CC(C)(OC)C(O)C(C)O2)C(C)C(OC2OC(C)CC([N+](C)(C)CC)C2O)C2(C)CC(C)=C(O2)C(C)C(O)C1(C)O (stereo not drawn) [Compound 19] |  |  |  |  |  |  | > 100 | > 100 | > 100 | > 100 | > 100 |  |  |  |  |
| CCC1OC(=O)C(C)C(OC2CC(C)(OC)C(O)C(C)O2)C(C)C(OC2OC(C)CC([N+](C)(C)CC3CC3)C2O)C2(C)CC(C)=C(O2)C(C)C(O)C1(C)O (stereo not drawn) [Compound 50] | > 100 | > 100 | > 100 | 100 |  | > 100 |  |  |  |  |  |  |  |  |  |

Now from value to molecule, other results behind:

| MIC (Escherichia coli NIHJ) [µg/mL] | MIC [1, 4] [µg/mL] | MIC ([2]; Staphylococcus aureus FDA 209P) [µg/mL] | MIC [3, 5] [µg/mL] | MIC (Bacillus cereus IFO 3001; [6]) [µg/mL] | MIC (Bacillus subtilis) [µg/mL] | MIC EC (Escherichia coli NIHJ) [µg/mL] | MIC KP ([1]; Klebsiella pneumoniae ATCC 10031) [µg/mL] | MIC SA (1) [3, 5] [µg/mL] | MIC BC (Bacillus cereus IFO 3001; Bacillus cereus IFO 3001) [µg/mL] | MIC BS (Bacillus subtilis) [µg/mL] | SMILES | MIC ([1]; Klebsiella pneumoniae, ATCC10031, read-out: MIC KP) [µg/mL] | MIC [2] [µg/mL] | MIC [3] [µg/mL] | MIC (Bacillus cereus IFO 3001; IFO3001, read-out: MIC BC) [µg/mL] |
| --- | --- | --- | --- | --- | --- | --- | --- | --- | --- | --- | --- | --- | --- | --- | --- |
| > 100 | > 100 | > 100 | > 100 | > 100 | > 100 |  |  |  |  |  | CCC1OC(=O)C(C)C(OC2CC(C)(OC)C(O)C(C)O2)C(C)C(OC2OC(C)CC([N+](C)(C)C)C2O)C2(C)CC(C)=C(O2)C(C)C(O)C1(C)O (stereo not drawn) [Compound 1] |  |  |  |  |
| > 100 | > 100 | 100 | 100 | 100 | 100 |  |  |  |  |  | CCC1OC(=O)C(C)C(OC2CC(C)(OC)C(O)C(C)O2)C(C)C(OC2OC(C)CC([N+](C)(C)C)C2O)C2(C)CC(C)=C(O2)C(C)C(OC(C)=O)C1(C)OC(C)=O (stereo not drawn) [Compound 2] |  |  |  |  |
| > 100 | > 100 | > 100 | > 100 | > 100 | > 100 |  |  |  |  |  | CCC1OC(=O)C(C)C(OC2CC(C)(OC)C(O)C(C)O2)C(C)C(OC2OC(C)CC([N+](C)(C)C)C2O)C2(C)CC(C)=C(O2)C(C)C(OS(C)(=O)=O)C1(C)O (stereo not drawn) [Compound 3] |  |  |  |  |
| > 100 | > 100 | > 100 | > 100 | > 100 | > 100 |  |  |  |  |  | CCC1OC(=O)C(C)C(OC2CC(C)(OC)C(OC=O)C(C)O2)C(C)C(OC2OC(C)CC([N+](C)(C)C)C2O)C2(C)CC(C)=C(O2)C(C)C(OS(C)(=O)=O)C1(C)O (stereo not drawn) [Compound 4] |  |  |  |  |
